From US20250186365A1, “COMBINATION OF ANTISPASMODIC AND OSMOTIC AGENTS FOR TOPICAL PRODUCTS AND METHOD OF USE THEREOF” (priority 2023, published 2025)
“Also recorded” adds a separate entry of the source.

What was measured:
hind limb muscle = experiment: Rat hind limb muscle twitch study; assay type: in vivo, Sprague-Dawley rats
Experimental: Adverting now to the drawings, FIG. 1 is a schematic diagram of a validated muscle twitch experimental set-up in the present disclosure. Here, anesthetized Sprague-Dawley rats were prepared for muscle contraction assessment of their hind limbs. The hind limbs were shaved and secured at the knee and ankle joints to prevent movement. The distal tendon of the targeted muscle was connected to a high-sensitivity force transducer to measure contractile force with precision. Electrical stimulation was delivered via electrodes positioned on the sciatic nerve to evoke muscle contractions. Vehicle (control study) or 5% w/w of HD was topically applied to the dermal area corresponding to the muscle group under study, ensuring proximity for local diffusion and effect. A study was performed to evaluate the effects of HD on muscle contractility using a validated in vivo rat model. The experimental setup was meticulously designed to measure the contractile force of the hind limb muscle in response to electrical stimulation of the sciatic nerve, providing a quantitative assessment of muscle relaxation and contraction dynamics in the presence of HD. Anesthetized Sprague-Dawley rats were used for this study, ensuring minimal variability in response to HD application. Hind limbs were shaved and then immobilized at the knee and ankle joints to isolate the effect to the targeted muscle group. […]

hairless mice = experiment: Rotarod performance study in hairless mice; assay type: in vivo; details: 5% HD topical; for time spent on Rota Rod: 20 rpm, vehicle 60 seconds
Experimental: Once the mice were trained, the rod was rotated at a constant speed of 20 rpm. Then the mice were placed on the rotating rod and length of time they could stay on the rotating rod was measured.
The Rotarod study was to investigate the skeletal muscle relaxant effects of HD, specifically its impact on motor coordination and balance in hairless mice. The study was structured to assess both the kinetics of HD's effect over time and its efficacy in inducing muscle relaxation. Efficacy of HD was determined post-treatment at intervals of 15, 30, 60, 75, 90 minutes. Control and Treatment Groups: Each stage included a control group receiving vehicle (Aloe Vera Gel) and a test group treated with HD, 5% w/w HD (0.5 g) in the vehicle (9.5 g Aloe Vera Gel). The topical treatment was applied to the thighs of all four limbs for each mouse.

[1] = system: mouse extensor digitorum longus muscles; experiment: Isolated mouse muscle contraction study
Experimental: FIG. 4 is a schematic diagram of a validated isolated mouse muscle contraction study. The mouse muscles were isolated and placed in a physiological buffer within a tissue bath. Muscles were anchored at one end to the chamber floor and connected at the other end to a force transducer. After establishing a baseline response to the electrical field stimulation, HD was added to the buffer at concentrations ranging from 0.01% w/w to 1% w/w, and the impact on muscle contractile force was recorded over time at the fixed frequency of 150 Hz.
This subsequent study was aimed to elucidate the specific effects of HD on isolated muscle tissue from mice, to quantify its potential use as a muscle relaxant. The study's design allowed for the controlled assessment of muscle contractility in a physiological buffer, minimizing external variables present in in vivo models. Muscle Isolation: The mouse extensor digitorum longus muscles were carefully dissected and mounted in a tissue bath super fused with oxygenated physiological buffer, ensuring tissue viability throughout the experiment (FIG. 4). Baseline Measurement: Initial contractile responses were established via electrical field stimulation at various frequencies, setting a comparative baseline for subsequent HD application effects. HD Application: Differing concentrations of HD (ranging from 0.01% to 1%) were introduced to the buffer. The muscle's contractile force (amplitude, which is the maximum contractile force) was determined to assess HD's concentration-dependent effects (FIG. 6). Stimulation Frequency Adjustment: To explore the frequency-dependent nature of HD's action, muscles underwent varied frequencies of electrical stimulation. This protocol is aimed to simulate conditions of sporadic muscle spasms.

CCCCC(O)CO (centres unmarked) [HD, 1,2-hexanediol]
duration of muscle contraction (hind limb muscle; 5% w/w HD topical vs vehicle, p<0.05): statistically significant reduction | ability to maintain tetanic contraction during the stimulus period (hind limb muscle; 5% w/w HD topical, electrical stimulation at 150 Hz): failing to maintain tetanic tension; also recorded: unable to maintain tetanic contraction | recovery from the muscle relaxant effect (hairless mice): complete recovery of all mice | time spent on Rota Rod (hairless mice; 30 minutes post treatment): significant decrease | time spent on Rota Rod (hairless mice; 60 minutes post treatment): significant decrease | inhibitory effect on muscle contraction ([1]; 0.01% HD in buffer, 150 Hz): minimal effects; also recorded: No significant inhibitory effect | reduction in contractile force ([1]; 0.1% HD in buffer, 150 Hz, vs vehicle controls): about 44% | torque generation against stimulus frequency ([1]; 0.5% HD vs vehicle, n=5, p<0.01): frequency-dependent decrease in torque generation; also recorded: inhibition is more complete at higher frequencies of stimulation
